Biological target: protein phosphatase-2A1 (Homo sapiens, UniProt P67775)
Experiment: Activation of protein phosphatase-2A1 in intact Jurkat cells (DEAE Sepharose fractions of extracts assayed)
Format: cell-based
Parameters: Protein phosphatase-2A1 purified from CD^4+ T cells as described in materials and method; endogenous in cells; host or cells: Jurkat cells; enzyme purified by DEAE Sepharose, Sephacryl S-300 HR and poly-L-lysine Agarose
Conditions: Jurkat cells treated with 1000 nM for 1 hour, 0.001% DMSO
Description: Jurkat cells (a CD^4+ T cell line) were grown in RPMI 1640 and 10% (v/v) fetal bovine serum. 1600 ml of cell suspension (10^6 cells per ml) were split into two flasks and one was treated with SYRAPRO-2000 for 1 hour (circles) while the other was not (squares). The cells from each flask were collected by centrifugation, washed with 50 mM Imidazole-Cl pH 7.2 plus 150 mM NaCl and then homogenized in homogenization buffer as described in materials and methods. The homogenate from each flask was chromatographed on a DEAE Sepharose column and the eluted fractions were assayed for type 2A protein phosphatase activity as described in materials and method. Similar results were obtained in 3 independent experiments.
The effect of synthesized SYRAPRO-2000 on protein phosphatase-2A1 can be determined in intact cells. Jurkat cells, a human CD^4+ T transformed cell line. Jurkat cells are grown in RPMI 1680 medium supplemented with 5% (v/v) fetal bovine serum and antibiotics and treated or not with 1 μM of SYRAPRO-2000 for 60 minutes. Following treatment with SYRAPRO-2000, cells are harvested by centrifugation, washed and homogenized. A cell extract is prepared by centrifugation and loaded onto a DEAE Sepharose column which is washed and eluted with a liner gradient of buffer plus 0 mM NaCl to buffer plus 400 mM NaCl. […]

protein phosphatase-2A1, sequence (P67775 whole entry): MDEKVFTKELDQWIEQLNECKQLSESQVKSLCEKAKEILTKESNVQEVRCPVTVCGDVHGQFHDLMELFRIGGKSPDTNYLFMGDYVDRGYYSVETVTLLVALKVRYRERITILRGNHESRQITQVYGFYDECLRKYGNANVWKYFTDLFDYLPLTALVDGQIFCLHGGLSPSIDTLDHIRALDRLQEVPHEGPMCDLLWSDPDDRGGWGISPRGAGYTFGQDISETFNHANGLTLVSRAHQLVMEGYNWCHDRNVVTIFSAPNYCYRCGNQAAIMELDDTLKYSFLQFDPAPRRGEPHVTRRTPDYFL
protein phosphatase-2A1, sequence (P30153 whole entry partner): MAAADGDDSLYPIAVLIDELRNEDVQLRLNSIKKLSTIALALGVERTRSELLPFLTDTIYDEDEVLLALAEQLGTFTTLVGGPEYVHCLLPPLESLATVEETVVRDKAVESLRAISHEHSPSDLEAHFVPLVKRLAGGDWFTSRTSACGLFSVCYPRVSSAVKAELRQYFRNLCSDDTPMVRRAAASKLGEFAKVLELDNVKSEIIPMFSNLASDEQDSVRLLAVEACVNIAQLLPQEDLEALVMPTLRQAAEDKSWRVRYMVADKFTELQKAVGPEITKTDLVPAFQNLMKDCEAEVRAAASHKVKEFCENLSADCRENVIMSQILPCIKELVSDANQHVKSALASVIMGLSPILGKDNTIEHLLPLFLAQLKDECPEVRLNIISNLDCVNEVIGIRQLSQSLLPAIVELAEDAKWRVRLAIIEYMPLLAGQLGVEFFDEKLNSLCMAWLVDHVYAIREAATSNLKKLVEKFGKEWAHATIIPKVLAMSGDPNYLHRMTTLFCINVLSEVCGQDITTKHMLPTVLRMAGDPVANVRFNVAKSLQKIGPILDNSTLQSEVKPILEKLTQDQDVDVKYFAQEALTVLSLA
protein phosphatase-2A1, sequence (P63151 whole entry partner): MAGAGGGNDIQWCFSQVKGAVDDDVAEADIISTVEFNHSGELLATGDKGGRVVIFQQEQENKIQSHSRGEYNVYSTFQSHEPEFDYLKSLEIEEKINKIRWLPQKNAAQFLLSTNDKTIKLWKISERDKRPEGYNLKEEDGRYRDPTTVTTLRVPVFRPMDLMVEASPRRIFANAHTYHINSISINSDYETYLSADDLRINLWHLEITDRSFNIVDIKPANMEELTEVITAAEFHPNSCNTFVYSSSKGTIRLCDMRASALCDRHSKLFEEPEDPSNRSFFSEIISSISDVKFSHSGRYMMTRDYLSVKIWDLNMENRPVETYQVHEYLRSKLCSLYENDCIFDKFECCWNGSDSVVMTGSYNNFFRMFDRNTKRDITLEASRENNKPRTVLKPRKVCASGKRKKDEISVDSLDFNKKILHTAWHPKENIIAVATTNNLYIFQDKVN

## CC[C@H](C)[C@H](NC(=O)[C@H](CCCNC(=N)N)NC(=O)[C@H](CO)NC(=O)[C@H](Cc1c[nH]cn1)NC(=O)[C@H](CCCNC(=N)N)NC(=O)[C@H](CS)NC(=O)CNC(=O)[C@@H](NC(=O)[C@H](CCCNC(=N)N)NC(=O)[C@H](Cc1ccccc1)NC(=O)[C@@H](N)Cc1c[nH]cn1)[C@@H](C)CC)C(=O)NCC(=O)N[C@H](C(=O)N[C@H](C(=O)N[C@@H](CCCNC(=N)N)C(=O)N[C@@H](CCC(N)=O)C(=O)N[C@@H](CCCNC(=N)N)C(=O)N[C@@H](CCCNC(=N)N)C(=O)N[C@@H](C)C(=O)N[C@@H](CCCNC(=N)N)C(=O)N[C@@H](CC(N)=O)C(=O)NCC(=O)N[C@@H](C)C(=O)N[C@@H](CO)C(=O)N[C@@H](CCCNC(=N)N)C(=O)N[C@@H](CO)C(=O)O)[C@@H](C)O)C(C)C [SYRAPRO-2000]
  activity of protein phosphatase-2A1 in intact cells: became activated
